Source: patent publication US5556744A, “Methods and compositions for diagnosing and treating certain HIV infected patients” (The Trustees of the University of Pennsylvania, priority 1994, dated 1996)

What was measured:
HIV-IIIB viral isolate = test: Neutralization assay (HIV-IIIB, Hut-78 cells, p24 antigen ELISA); format: cell-based, HIV-1 IIIB; parameters: key to Neutralization Activity, Dilution Resulting in ≥50% Inhibition: --: (-) indicates negative (i.e. a dilution of <1:10); settings: HIV-IIIB, Hut-78 cells, p24 OD450 after 6 days; vs normal human serum
Experimental: (§1) The H9 cell line (a cutaneous T lymphoma line) infected by HIV-IIIB [ATCC CRL 8543] was used in the neutralization assay. The H9 cell line infected by HIV-MN was used in the anti-syncytial assays. SupT1 and Hut78 cells were used as the target cell lines for the anti-syncytial and neutralization assays. All cell lines were obtained from the National Institutes of Health AIDS Repository (Bethesda, Md.).
In a neutralization assay, 20 μl of maternal sera samples was placed in 96 round bottom well plates at final dilutions of 1:10, 1:90 and 1:810 in RPMI. The HIV-IIIB viral isolate was diluted in RPMI to a TCID50 of 100 units/ml. Twenty μl of the virus solution was placed in each well and the plate was incubated for one hour at 4° C. Hut-78 cells were incubated with 2 μg/ml of polybrene for one hour at 37° C. in a CO2 incubator. The HUT-78 cells were washed and resuspended in fresh RPMI to a final concentration of 4×10^6 cells/ml. Ten μl of the cell suspension was added to each well and the plate was incubated for one hour in a 37° C., CO2 incubator.
Fifteen μl of the serum/cell/virus solution was aliquoted to a new plate containing 200 μl of fresh RPMI and incubated for 6 days. After 6 days, 100 μl was used to analyze for p24 antigen. The p24 capture ELISA assay kit (Coulter Corporation, Hialeah, Fla.) was used to perform the measurements.
Further, sera samples at the same dilutions as described above were tested for residual p24 core protein or antibody to insure the results were due only to viral infection.

gp41 peptides = test: Number of gp41 peptides bound by maternal sera (Examples 3, 4); format: binding, HIV-1 IIIB; settings: Table 8
Experimental: (§2) Radioimmunoassay (RIA) and enzyme-linked immunosorbent assay (ELISA) were performed by standard methodologies [E. Engvall, Meth. Immunol., 70:419-439 (1980); S. K. Pierce et al, J. Exp. Med., 144:1254-1262 (1976)]. Peptides were dissolved in 0.05M carbonate-bicarbonate buffer (pH 9.6) at a concentration of 10 μg/ml. Fifty μl (500 ng) of the peptides were immobilized in 96 well polyvinylchloride plates (Dynatech Laboratories, Inc.) overnight at 4° C. Plates were washed and non-specific sites were blocked with PBS containing 1% BSA overnight at 4° C.
(§3) Dilutions of HIV positive maternal sera were made in blocking buffer at dilutions of 1:50 and 1:500 and incubated in peptide coated plates overnight at 4° C. Plates were washed with PBS and incubated with 75,000 cpm of ^125 I-labelled goat anti-human IgG. The antibody was iodinated by a chloramine T method [W. V. Williams et al, Proc. Natl. Acad. Sci. USA, 85:6488-6492 (1988)]. Plates were washed, dried and counted in a gamma counter to measure specific binding. Normal human serum (i.e., HIV seronegative) was used as a control.
(§4) Alternatively, ELISA assays were performed in polystyrene plates (Dynatech Laboratories, Inc) in which 0.05% Tween 20 (Sigma Chemical Co.) was included in the washing, blocking and dilution buffers. The secondary antibody used was goat […] Ig conjugated to horseradish peroxidase (HRP) (Sigma Chemical Co). The substrate used for color development was 3,3',5,5' tetramethyl-benzidine dihydrochloride (TMB) (Sigma Chemical Co). Absorbance of samples was measured in a Dynatech MR5000 (Dynatech Laboratories, Inc.) plate reader and expressed as an optical density at wavelength of 450 nm (OD450).
(§5) The results of the binding assays are represented in Tables 3, 4, 6 and 7. The following key is used for the designation of specific binding of the maternal sera samples to the peptides: The minus sign, -, is equivalent to the specific OD450 or cpm of sera sample binding to peptide divided by the specific OD450 or cpm of NHS sample binding to peptide, which value is less than 2. The plus sign, +, is equivalent to the specific OD450 or cpm of sera sample binding to peptide divided by the specific OD450 or cpm of NHS sample binding to peptide, which value is between 2 to 3. The double plus sign, ++, is equivalent to the specific OD450 or cpm of sera sample binding to peptide divided by the specific OD450 or cpm of NHS sample binding to peptide, which value is greater than 3.
(§6) Comparisons of number of peptides which bound maternal serum samples were made between the transmission group and the nontransmission group. The data was analyzed using the unpaired student's test. For the determination of differences in the binding of specific peptides between transmission and non-transmission groups, the Spearman's rank-order correlation test was performed.

[1] = test system: HIV-1 infected cells (MN isolate); test: Anti-syncytial assay (inhibition of HIV-1 MN syncytium formation, SupT1 target cells); format: cell-based; settings: HIV-1 MN, SupT1 cells, 3 days; vs normal human serum
Description: as §1
To analyze the effect of the maternal serum samples on HIV-1 fusion, SupT1 cells were used as target cells in an anti-syncytial assay. Dilutions of the different maternal serum samples were made in 96 well plates in RPMI 1640 media containing 10% fetal calf serum at final dilutions of 1:4, 1:8, 1:16, 1:32, 1:64, 1:128, 1:256 or 1:512. HIV-1 infected cells (MN isolate) were then plated in the wells at a density of approximately 10^4 cells per well. SupT1 target cells were then added at 5×10^5 /well and the number of syncytia are determined after 3 days of incubation. Inhibition of syncytium formation by a serum sample was considered significant if the dilution which yielded a 50% reduction in the number of syncytia when compared to control was greater than 1:32. The average number of syncytia in the control (normal human serum) wells at the above dilutions were: 45.5, 48.5, 44, 48, 48.5, 41.5, 42 and 45.5 respectively.

gp120 peptides = test: Number of gp120 peptides bound by maternal sera (Examples 3, 4); format: binding, HIV-1 IIIB; settings: Table 8
Experimental: as §2, §3, §4, §5, §6

Substance	Neutralization Activity, Dilution Resulting in ≥50% Inhibition (HIV-IIIB viral isolate)	Number of gp41 Peptides Bound (+ or ++) (gp41 peptides)	Anti-Syncytial Activity, Dilution Resulting in ≥50% Inhibition [1]	Number of gp120 Peptides Bound (+/++) (gp120 peptides)
HP10: gp120 peptide, amino acids 157-171, SEQ ID NO:105 (CSFNISTSIRGKVQK)	--	0	1:256	2
HP7: gp120 peptide, amino acids 107-121, SEQ ID NO:103 (DIISLWDQSLKPCVK)	1:810	3	1:64	3
HP1: gp120 peptide, amino acids 93-107, SEQ ID NO:99 (FNMWKNDMVEQMHED)	--	6	1:64	6
17: gp120 peptide, amino acids 267-282, SEQ ID NO:111 (EEEVVIRSVNFTDNAK) [Peptide 17]	1:810	4	1:256	5
HP2: gp120 peptide, amino acids 98-112, SEQ ID NO:100 (NDMVEQMHEDIISLW)	--	2	1:32	4
HP5: gp120 peptide, amino acids 105-117, SEQ ID NO:102	--	0	1:128	4
HP9: gp120 peptide, amino acids 141-155, SEQ ID NO:104 (NSSSGRMIMEKGEIK)	1:810	1	1:256	3
HP3: gp120 peptide, amino acids 102-116, SEQ ID NO:101 (EQMHEDIISLWDQSL)	1:90	2	1:256	4
